“And” between values parts separate entries of the source, which are not always exact repeats. Equal entries are not always repeated.
Key:
Format in all cases: functional, Homo sapiens
Design in all cases: dose or concentration left out as unconfirmed
Colon cancer organoid [1] = assay: (§1) Image-based profiling of donated chemical probes and chemogenomic kinase set in O21 CRC organoid. Image analysis is performed on the sum area metric, and the data were normalized to the DMSO control. After imaging the organoid viability is measured using the OneGloEX Luciferase Assay System. The normalized viability data and sum area are reported.
Colon cancer organoid [2] = assay: as §1, with “O06” for “O21”
Colon cancer organoid [3] = assay: as §1, with “O09” for “O21”

Row | Structure (SMILES) | Cell Viability (Colon cancer organoid [1]; Replication number 1) | Cell Viability (Colon cancer organoid [1]; Replication number 2) | Cell Viability (Colon cancer organoid [2]; Replication number 1) | Cell Viability (Colon cancer organoid [2]; Replication number 2) | Cell Viability (Colon cancer organoid [3]; Replication number 1) | Cell Viability (Colon cancer organoid [3]; Replication number 2)
1 | COc1ccccc1S(=O)(=O)Nc1ccc2c(c1)CN(C)C(=O)N2 | 64.6421% and 66.4272% | 105.73% and 125.656% | 152.206% and 125.879% | 155.447% and 126.899% | 91.3379% and 107.573% | 93.4533% and 109.471%
2 | COc1ncc(-c2ccc3nccc(-c4ccnnc4)c3c2)cc1NS(=O)(=O)c1ccc(F)cc1F [OMIPALISIB] | 14.5309% and 34.1185% | – | 2.947% and 9.014% | 1.718% and 5.799% | 14.1746% and 4.189% | 12.1613% and 4.9671%
3 | OCCn1cc(-c2ccc3c(c2)CCC3=NO)c(-c2ccncc2)n1 | 88.6835% and 115.401% | 96.5689% and 114.574% | 89.1031% and 90.5828% | 141.492% and 108.175% | 111.659% and 102.228% | 89.8993% and 62.6286%
4 | COc1cc(Nc2nc(C)cc(-c3cnn4nc(OC)ccc34)n2)cc(C(F)(F)F)c1 | 100.392% and 88.9748% | 126.257% and 100.876% | 101.755% and 109.64% | 94.2101% and 91.9205% | 104.965% and 91.5636% | 103.466% and 113.093%
5 | CC(=O)Nc1nc(CN2CCC[C@H](Cc3cc(C)nc(C)c3)C2)cs1 [JNJ-73924149] | 83.219% and 91.2416% | 110.349% and 95.2087% | 110.009% and 115.731% | 115.696% and 107.702% | 161.492% and 89.8313% | 217.991% and 98.2452%
6 | c1ccc2oc(-c3csc(C4CCN(Cc5nc6ncccc6[nH]5)CC4)n3)cc2c1 | 94.2166% and 105.311% | 87.22% and 87.1856% | 71.3349% and 100.567% | 106.728% and 127.102% | 82.621% and 84.4067% | 113.991% and 112.807%
7 | C[C@H](NC(=O)Nc1cc2[nH]ncc2c(CO)n1)c1ccccn1 [ERKi-NC] | 112.403% and 96.6365% | 96.9008% and 86.2245% | 123.043% and 110.304% | 54.2126% and 97.1276% | 84.2492% and 86.249% | 90.2054% and 105.732%
8 | Cc1nccc(COC(=O)N2C[C@@H]3[C@@H](CNC(=O)c4ccc5[nH]nnc5c4)[C@@H]3C2)n1 [BI 3017] | 96.5552% and 87.3221% | 97.9165% and 92.8571% | 85.9577% and 77.5176% | 101.815% and 101.392% | 118.304% and 89.116% | 133.367% and 124.133%
9 | CC(=O)N1CCC(c2ccc(C(=O)NC3=NCCN3)cc2C(F)(F)F)CC1 [BI 0054] | 108.593% and 93.1436% | 106.585% and 84.6939% | 118.453% and 112.646% | 54.9204% and 58.7504% | 145.728% and 140.005% | 185.058% and 111.866%
10 | COc1cccc(CNC(=O)c2nc3scc(CN(C)Cc4ccccc4)c3c(=O)[nH]2)c1 [T-26f] | 98.5646% and 83.8292% | 88.8685% and 86.2245% | 86.0581% and 83.8408% | 86.5317% and 78.1759% | 195.868% and 94.1333% | 147.324% and 100.767%
11 | COc1cc(-c2cn([C@H]3CCc4ccccc4N(CC(F)(F)F)C3=O)nn2)ccc1-n1ccc(C)n1 | 95.5395% and 92.5614% | 105.607% and 89.2857% | 93.8708% and 97.1897% | 92.3722% and 127.214% | 31.4153% and 64.0297% | 67.1931% and 101.059%
12 | Nc1ccc(C(=O)Nc2cccc(-c3nc(N4CCOCC4)c4oc5ncccc5c4n3)c2)cn1 | 74.5315% and 72.4739% | 83.2595% and 89.2407% | 13.3803% and 32.049% | – | 90.7287% and 76.048% | 104.901% and 91.2435%
13 | Cn1cnc2c(F)c(Nc3ccc(Br)cc3Cl)c(C(=O)NOCCO)cc21 [SELUMETINIB] | 30.9074% and 27.5425% | 36.6071% and 40.747% | 17.7792% and 31.8399% | 27.9489% and 57.8656% | 59.0124% and 83.6445% | 134.387% and 96.018%
14 | C=CC(=O)Nc1ccc2[nH]c(=O)n(C3CCN(Cc4ccc(-c5nc6cc[nH]c(=O)c6cc5-c5ccccc5)cc4)CC3)c2c1 [Borussertib] | 72.0097% and 96.5806% | 66.1245% and 78.518% | 53.8202% and 93.0364% | 55.5643% and 106.199% | 27.7912% and 48.9559% | 42.376% and 51.9429%
15 | Cc1cc2c(-c3ccco3)cnc(N[C@H]3CCN(C)C[C@@H]3C(=O)NC3CCCCC3)c2[nH]c1=O [GSK791] | 103.348% and 100.946% | 100.095% and 111.149% | 106.466% and 102.024% | 100.388% and 101.634% | 46.4952% and 92.4722% | 100.727% and 114.988%
16 | CN(C)C(=O)c1sc2nc(N3CCC(S(C)(=O)=O)CC3)cc(C(F)(F)F)c2c1N [BI-5026] | 97.3% and 81.8479% | 110.845% and 100.952% | 118.242% and 106.64% | 81.5646% and 70.3988% | 136.068% and 99.7874% | 102.802% and 111.221%
17 | CN(C(=O)c1cnn2cccnc12)c1cc2c(cc1N1CCOCC1)C(=O)N(C[C@@H](F)C(C)(C)O)C2 | 91.4071% and 91.6697% | 87.4763% and 99.932% | 66.1312% and 81.8624% | 88.8257% and 96.1076% | 67.6561% and 89.4711% | 97.2316% and 93.7748%
18 | CC(C)(O)[C@H](F)CN1Cc2cc(NC(=O)c3cnn4cccnc34)c(N3CCOCC3)cc2C1=O | 101.018% and 118.952% | 110.562% and 109.619% | 109.705% and 119.757% | 130.929% and 135.992% | 71.2325% and 98.662% | 94.649% and 96.9469%
19 | CC(=O)C1=C(C)N(c2cccc(C(F)(F)F)c2)C(=O)N[C@@H]1c1ccc(C#N)nc1 [BAY-678] | 123.826% and 98.3829% | 102.879% and 115.306% | 116.42% and 104.215% | 86.788% and 60.6455% | 154.648% and 117.069% | 95.0691% and 89.9598%
20 | Cn1cc(CCn2cnc(-c3cnn(C)c3)c2-c2ccc(C#N)cc2)cn1 | 99.776% and 95.2319% | 89.4066% and 104.177% | 175.784% and 127.57% | 222.733% and 136.219% | 104.672% and 93.4312% | 96.0156% and 86.9496%
21 | Cn1nc(C(=O)NCc2ccc(C(=O)O)cc2)cc1-c1ccc2[nH]ccc2c1 [BI 4395] | 90.5249% and 84.9935% | 78.9736% and 83.6735% | 93.2096% and 84.0749% | 51.0154% and 42.4045% | 118.116% and 98.6727% | 113.973% and 124.717%
22 | Cn1cc(Cl)c2c(Oc3c(F)cc(Nc4cc(Cl)nc(N)n4)cc3F)ccnc21 [BAY-4900] | 120.472% and 95.4893% | 100.602% and 97.8926% | 133.628% and 127.773% | 114.004% and 114.608% | 73.6043% and 111.604% | 79.5869% and 90.6027%
23 | CCn1c(-c2nc3cc(C(=O)N4CCCC(N)C4)ccc3n2C)cc2ccccc21.Cl (stereo not given) | 104.488% and 105.813% | 105.345% and 85.3819% | 210.545% and 138.685% | 140.649% and 97.743% | 117.35% and 104.328% | 180.446% and 129.427%
24 | Cc1ccc(-c2ccc3c(ccc4sc5c(c43)NC[C@@H](C)NC5=O)n2)cn1 | 108.383% and 98.1185% | 106.246% and 104.786% | 131.751% and 124.635% | 132.52% and 124.216% | 114.172% and 105.969% | 99.6709% and 79.9055%
25 | COc1ccc2c(c1)O[C@@H](c1ccc(OC)c(OC)c1)C[C@H]2NC(=O)C1(c2ccc3c(c2)OC(F)(F)O3)CC1 [A-1596586] | 105.739% and 116.224% | 98.6022% and 86.1659% | 114.211% and 123.158% | 130.418% and 120.375% | 77.2703% and 96.7863% | 76.2669% and 106.86%
26 | CCOc1cc(N2CCC(O)CC2)ccc1Nc1ncc2c(n1)N(C)c1ccccc1C(=O)N2C | 109.771% and 116.516% | 106.608% and 109.968% | 105.657% and 158.464% | 54.5485% and 108.792% | 50.6693% and 60.5891% | 44.9186% and 56.4198%
27 | COc1cc(OC)cc(-c2noc(N3CCN(C)C4(CCN(c5ccnc(C)c5)CC4)C3)n2)c1 | 102.094% and 140.496% | 79.0091% and 95.0477% | 99.0993% and 95.9195% | 203.392% and 146.256% | 147.791% and 90.4173% | 237.296% and 126.576%
